What was measured:
barnyardgrass [1] = assay: Test A preemergence; type: in vivo, Echinochloa crus-galli; details: preemergence
Summary of the method: (§1)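 Both timings tested concurrently in loam/sand soil: preemergence by directed soil spray, postemergence on plants of 2–10 cm at the one- to two-leaf stage. Greenhouse holding period was approximately 10 days before visual injury assessment (0–100, 0 = no effect).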

kochia [2] = assay: Test A preemergence; type: in vivo, Kochia scoparia; details: 125 g ai/ha, visual injury approx. 10 days after treatment
Summary of the method: as §1

common ragweed [3] = assay: Test A preemergence; type: in vivo, Ambrosia elation
Summary of the method: as §1

Italian ryegrass [4] = assay: Test A preemergence; type: in vivo, Lolium multiflorum
Summary of the method: as §1

foxtail, giant [5] = assay: Test A preemergence; type: in vivo, Setaria faberii; details: preemergence
Summary of the method: as §1

pigweed [6] = assay: Test A preemergence; type: in vivo, Amaranthus retroflexus; details: preemergence, 125 g ai/ha, visual injury approx. 10 days after treatment
Summary of the method: as §1

barnyardgrass [7] = assay: Test A postemergence; type: in vivo, Echinochloa crus-galli; details: Postemergence
Summary of the method: as §1

kochia [8] = assay: Test A postemergence; type: in vivo, Kochia scoparia; details: Postemergence
Summary of the method: as §1

common ragweed [9] = assay: Test A postemergence; type: in vivo, Ambrosia elation; details: Postemergence
Summary of the method: as §1

Italian ryegrass [10] = assay: Test A postemergence; type: in vivo, Lolium multiflorum; details: Postemergence
Summary of the method: as §1

foxtail, giant [11] = assay: Test A postemergence; type: in vivo, Setaria faberii; details: Postemergence
Summary of the method: as §1

pigweed [12] = assay: Test A postemergence; type: in vivo, Amaranthus retroflexus; details: Postemergence
Summary of the method: as §1

wheat = assay: Test A postemergence; type: in vivo, Triticum aestivum; details: Postemergence
Summary of the method: as §1

corn = assay: Test A postemergence; type: in vivo, Zea mays; details: Postemergence
Summary of the method: as §1

blackgrass = assay: Test A postemergence; type: in vivo, Alopecurus myosuroides; details: Postemergence
Summary of the method: as §1

galium = assay: Test A postemergence; type: in vivo, Galium aparine; details: Postemergence
Summary of the method: as §1

rice = assay: Test B flood; type: in vivo, Oryza sativa; details: 250 g ai/ha, visual rating on 0 to 100 scale (0 no effect, 100 complete control), 13 to 15 days
Summary of the method: (§2)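 Visual ratings on a 0–100 scale, where 0 means no effect and 100 means complete control, were assigned by comparison with controls 13 to 15 days after treatment. Compounds went into paddy water over 2-leaf plants flooded to 3 cm.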

sedge, umbrella = assay: Test B flood; type: in vivo, Cyperus difformis; details: 250 g ai/ha, visual rating on 0 to 100 scale (0 no effect, 100 complete control), 13 to 15 days
Summary of the method: as §2

ducksalad = assay: Test B flood; type: in vivo, Heteranthera limosa; details: 250 g ai/ha, visual rating on 0 to 100 scale (0 no effect, 100 complete control), 13 to 15 days
Summary of the method: as §2

barnyardgrass [13] = assay: Test B flood; type: in vivo, Echinochloa crus-galli; details: 250 g ai/ha, visual rating on 0 to 100 scale (0 no effect, 100 complete control), 13 to 15 days
Summary of the method: as §2

[14] = 125 g ai/ha, visual injury approx. 10 days after treatment
[15] = 500 g ai/ha, visual injury after approx. 10 days, 0 to 100 scale (0 no effect, 100 complete control)
[16] = 125 g ai/ha, 0 to 100 scale, 0 no effect, 100 complete control
[17] = 500 g ai/ha, 0 to 100 scale (0 no effect, 100 complete control)

CCc1cc(C(=O)NCC(F)(F)F)nn1Cc1cc(C(F)(F)F)nn1C(C)C [Compound 213]
0: Barnyardgrass plant response rating (0 to 100 scale, 0 is no effect, 100 is complete control) (barnyardgrass [1]; [14]) | Barnyardgrass plant response rating (barnyardgrass [1]; [15]) | Kochia plant response rating (0 to 100 scale) (kochia [2]) | Common Ragweed plant response rating (0 to 100 scale) (common ragweed [3]; [14]) | Common Ragweed plant response rating (common ragweed [3]; [15]) | Italian Ryegrass plant response rating (0 to 100 scale) (Italian ryegrass [4]; [14]) | Italian Ryegrass plant response rating (Italian ryegrass [4]; [15]) | Foxtail, Giant plant response rating (0 to 100 scale) (foxtail, giant [5]; [14]) | Foxtail, Giant plant response rating (foxtail, giant [5]; [15]) | Pigweed plant response rating (0 to 100 scale) (pigweed [6]) | Barnyardgrass plant response rating (barnyardgrass [7]; [16]) | Barnyardgrass plant response rating (barnyardgrass [7]; [17]) | Kochia plant response rating (kochia [8]; [16]) | Kochia plant response rating (kochia [8]; [17]) | Common Ragweed plant response rating (common ragweed [9]; [16]) | Common Ragweed plant response rating (common ragweed [9]; [17]) | Italian Ryegrass plant response rating (Italian ryegrass [10]; [16]) | Italian Ryegrass plant response rating (Italian ryegrass [10]; [17]) | Foxtail, Giant plant response rating (foxtail, giant [11]; [16]) | Foxtail, Giant plant response rating (foxtail, giant [11]; [17]) | Pigweed plant response rating (pigweed [12]; [16]) | Pigweed plant response rating (pigweed [12]; [17]) | Wheat plant response rating (wheat; [16]) | Wheat plant response rating (wheat; [17]) | Corn plant response rating (corn; [16]) | Corn plant response rating (corn; [17]) | Blackgrass plant response rating (blackgrass; [16]) | Blackgrass plant response rating (blackgrass; [17]) | Galium plant response rating (galium; [16]) | Galium plant response rating (galium; [17]) | Plant response rating, Rice (rice) | Plant response rating, Sedge, Umbrella (sedge, umbrella) | Plant response rating, Ducksalad (ducksalad) | Plant response rating, Barnyardgrass (barnyardgrass [13])

Source: patent US20150105252A1, “SUBSTITUTED PYRAZOLES AS HERBICIDES” (E I DU PONT DE NEMOURS AND COMPANY, priority 2013, published 2015)
